Test results published in patent publication US10800816B2 (Baxalta GmbH, priority 2012, dated 2020).
Where a SMILES comes first, the peptide text is derived from it. Bridges are numbered along the chain shown (N, C = ends). [ ]: non-standard residue; d: D form. The star is where a group is joined. Succinimide(1-Et,3-yl) = CCN1C(=O)CC(*)C1=O; Bta = N[C@@H](Cc1csc2ccccc12)C(=O)O; Tle = CC(C)(C)[C@H](N)C(=O)O; hCys = N[C@@H](CCS)C(=O)O; Hexanoyl = CCCCCC(=O)*; Aib = CC(C)(N)C(=O)O; Sar = CNCC(=O)O

Tests used:
[1] = system: TFPI; test: Progress Curves of Inhibition of FXa | % Inhibit (2.5μM)
Experimental: Head of the field: Progress Curves of Inhibition of FXa | % Inhibit (2.5μM)

[2] = system: TFPI; test: FXa Inhibition assay | EC50 (µM)
[3] = system: TFPI; test: % Inhibition @ 0.63µM
[4] = system: TFPI; test: % Inhibition @ 2.5µM
[5] = FIGURE 78X
[6] = system: TFPI; test: Extrinsic Tenase Inhibition assay | % Inhibition @ 2.5μM
[7] = system: TFPI; test: % Inhibition @ 2.5µM; remark: listed apart in the source
[8] = FIGURE 78AA
Description: Table printed on a drawing sheet, FIGURE 78AA
First reader's note: Continued from the previous sheet: the first body row (73.35) belongs to a compound listed there; cells with several numbers hold the single replicate values behind the mean.

[9] = system: TFPI; test: % Inhibition @ 0.63µM; remark: listed apart in the source

In the case of “Ac-KKHVSKRSKEMALARLYYKTSKK-NH2 (SEQ ID NO: 2302) [JBT0231]”, the “Progress Curves of Inhibition of FXa | % Inhibit ([…])” value [1] is reported as 0%.
With “Ac-KKYASFPLAVQLHVSKRSKEMAKK-NH2 [JBT0233]” the “Progress Curves of Inhibition of FXa | % Inhibit ([…])” value [1] was 6%.
In the case of “Ac-KKVQLHVSKRSKEMALARLYYKTSKK- NH2 (SEQ ID NO: 2301) (Ac-KKVQLHVSKRSKEMALARLYYKTSKK-NH2) [JBT0230]”, the “Progress Curves of Inhibition of FXa | % Inhibit ([…])” value [1] is reported as 0%.
In the case of “Ac-FQSKGNVFVEGYFERLRAKL-NH2 (SEQ ID NO: 30) [JBT0475]”, the EC50 [2] is reported as 250 nM, the “% Inhibition @ […]” value [3] is reported as 37% and the “% Inhibition @ […]” value [4] is reported as 50%.
In the case of “Ac-KKQLHVSKRSKEMALARLYYKTKK-NH2 (SEQ ID NO: 2306) [JBT0235]”, the “Progress Curves of Inhibition of FXa | % Inhibit ([…])” value [1] is reported as 0%.
With “Ac-FQSKGNVFVHGYFERLRAKL-NH2 (SEQ ID NO: 28) [JBT0473]” the EC50 [2] was 250 nM, the “% Inhibition @ […]” value [3] was 31% and the “% Inhibition @ […]” value [4] was 45%.
With `CC(=O)N[C@@H](Cc1ccccc1)C(=O)N[C@@H](CCC(N)=O)C(=O)N[C@@H](CO)C(=O)N[C@@H](CCCCN)C(=O)N1CCC[C@@H]1C(=O)N[C@@H](CC(N)=O)C(=O)N[C@H](C(=O)N[C@@H](Cc1c[nH]cn1)C(=O)N[C@H](C(=O)N1CCC[C@H]1C(=O)N[C@@H]1CSSCC[C@@H](C(=O)N[C@@H](CCCNC(=N)N)C(=O)N[C@@H](CC(C)C)C(=O)NC(C)(C)C(=O)N[C@@H](C)C(=O)N[C@@H](CCCCN)C(=O)N[C@@H](CC(C)C)C(N)=O)NC(=O)[C@H](Cc2csc3ccccc23)NC(=O)[C@H](Cc2ccc(O)cc2)NC1=O)C(C)C)C(C)C` [JBT00002518, Ac-FQSKpNVHVP[cY-Bta--Hcy-]RL-Aib-AKL-NH2] (Ac-FQSK[dP]NVHVP[dC]Y[Bta][hCys]RL[Aib]AKL-NH2; disulfide 11-14) the “24 h Human Plasma Stability | Mean Remaining [%]” value [5] was 77.70% and the “24 h Mouse Plasma Stability | Mean Remaining [%]” value [5] was 28.30%.
For “Ac-KRYKWF[CGMRDMKGTMSC]VWVKF-NH2 (SEQ ID NO: 1016) (Ac-KRYKWFCGMRDMKGTMSCVWVKF-NH2; disulfide 7-18; SMILES CSCC[C@@H]1NC(=O)CNC(=O)[C@@H](NC(=O)[C@H](Cc2ccccc2)NC(=O)[C@H](Cc2c[nH]c3ccccc23)NC(=O)[C@H](CCCCN)NC(=O)[C@H](Cc2ccc(O)cc2)NC(=O)[C@H](CCCNC(=N)N)NC(=O)[C@H](CCCCN)NC(C)=O)CSSC[C@@H](C(=O)N[C@H](C(=O)N[C@@H](Cc2c[nH]c3ccccc23)C(=O)N[C@H](C(=O)N[C@@H](CCCCN)C(=O)N[C@@H](Cc2ccccc2)C(N)=O)C(C)C)C(C)C)NC(=O)[C@H](CO)NC(=O)[C@H](CCSC)NC(=O)[C@H]([C@@H](C)O)NC(=O)CNC(=O)[C@H](CCCCN)NC(=O)[C@H](CCSC)NC(=O)[C@H](CC(=O)O)NC(=O)[C@H](CCCNC(=N)N)NC1=O) [JBT1474]”, the “Extrinsic Tenase Inhibition assay | % Inhibition @ […]” value [6] was 59%.
In the case of “Ac-FQSKGNVFLFGYFERLRAKL-NH2 (SEQ ID NO: 694) [JBT0658]”, the “% Inhibition @ […]” value [7] is reported as 6%.
With “Ac-SRYKWF[CGMKDMKGTMSC]VWVKF-NH2 (SEQ ID NO: 1017) (Ac-SRYKWFCGMKDMKGTMSCVWVKF-NH2; disulfide 7-18; SMILES CSCC[C@@H]1NC(=O)CNC(=O)[C@@H](NC(=O)[C@H](Cc2ccccc2)NC(=O)[C@H](Cc2c[nH]c3ccccc23)NC(=O)[C@H](CCCCN)NC(=O)[C@H](Cc2ccc(O)cc2)NC(=O)[C@H](CCCNC(=N)N)NC(=O)[C@H](CO)NC(C)=O)CSSC[C@@H](C(=O)N[C@H](C(=O)N[C@@H](Cc2c[nH]c3ccccc23)C(=O)N[C@H](C(=O)N[C@@H](CCCCN)C(=O)N[C@@H](Cc2ccccc2)C(N)=O)C(C)C)C(C)C)NC(=O)[C@H](CO)NC(=O)[C@H](CCSC)NC(=O)[C@H]([C@@H](C)O)NC(=O)CNC(=O)[C@H](CCCCN)NC(=O)[C@H](CCSC)NC(=O)[C@H](CC(=O)O)NC(=O)[C@H](CCCCN)NC1=O) [JBT1481]” the “Extrinsic Tenase Inhibition assay | % Inhibition @ […]” value [6] was 55%.
For “Ac-SFYKWF[CGMRDMKGTMSC]VWVKF-NH2 (SEQ ID NO:1010) [JBT1437]”, the “Extrinsic Tenase Inhibition assay | % Inhibition @ […]” value [6] was 53%.
With “Ac-KKLHVSKRSKEMALARLYYKTSKK-NH2 (SEQ ID NO: 2307) [JBT0236]” the “Progress Curves of Inhibition of FXa | % Inhibit ([…])” value [1] was 0%.
In the case of `CCCCCC(=O)N[C@@H](Cc1ccccc1)C(=O)N[C@@H](CCC(N)=O)C(=O)N[C@@H](CO)C(=O)N[C@@H](CCCCN)C(=O)N1CCC[C@@H]1C(=O)N[C@@H](CO)C(=O)N[C@H](C(=O)N[C@@H](Cc1c[nH]cn1)C(=O)N[C@H](C(=O)N[C@@H](CC(=O)O)C(=O)N[C@H](C)C(=O)N[C@@H](Cc1ccc(O)cc1)C(=O)N[C@@H](Cc1ccccc1)C(=O)N[C@@H](CCC(=O)O)C(=O)N[C@@H](CCCNC(=N)N)C(=O)N[C@@H](CC(C)C)C(=O)NC(C)(C)C(=O)N[C@@H](C)C(=O)N[C@@H](CCCCN)C(=O)N[C@@H](CC(C)C)C(=O)N[C@@H](CSC1CC(=O)N(CC)C1=O)C(N)=O)C(C)(C)C)C(C)C` (stereo partly drawn) [JBT00002546, Hex-FQSKpSVH-Tle-DaYFERL-Aib-AKLC(NEM)-NH2] (Hexanoyl-FQSK[dP]SVH[Tle]D[dA]YFERL[Aib]AKLC(Succinimide(1-Et,3-yl))-NH2), the “24 h Human Plasma Stability | Mean Remaining [%]” value [8] is reported as 87.66% and the “24 h Mouse Plasma Stability | Mean Remaining [%]” value [8] is reported as 72.98%.
For “Ac-FQSK-Nmg-AVFVFGYFARLRAKL-NH2 (SEQ ID NO: 206) (Ac-FQSK[Sar]AVFVFGYFARLRAKL-NH2; SMILES CC(=O)N[C@@H](Cc1ccccc1)C(=O)N[C@@H](CCC(N)=O)C(=O)N[C@@H](CO)C(=O)N[C@@H](CCCCN)C(=O)N(C)CC(=O)N[C@@H](C)C(=O)N[C@H](C(=O)N[C@@H](Cc1ccccc1)C(=O)N[C@H](C(=O)N[C@@H](Cc1ccccc1)C(=O)NCC(=O)N[C@@H](Cc1ccc(O)cc1)C(=O)N[C@@H](Cc1ccccc1)C(=O)N[C@@H](C)C(=O)N[C@@H](CCCNC(=N)N)C(=O)N[C@@H](CC(C)C)C(=O)N[C@@H](CCCNC(=N)N)C(=O)N[C@@H](C)C(=O)N[C@@H](CCCCN)C(=O)N[C@@H](CC(C)C)C(N)=O)C(C)C)C(C)C) [JBT0681]”, the “% Inhibition @ […]” value [7] was 52% and the “% Inhibition @ […]” value [9] was 52%.
In the case of “Ac-FQSKDNVFVTGYFERLRAKL-NH2 (SEQ ID NO: 33) [JBT0478]”, the EC50 [2] is reported as 760 nM, the “% Inhibition @ […]” value [3] is reported as 21% and the “% Inhibition @ […]” value [4] is reported as 39%.
With “(Hex-FQSKp-Cys(Acm)-VH-Tle-DaYFERL-Aib-AKLC-NH2)- Mal-mPEG23 [JBT00002544]” the “24 h Human Plasma Stability | Mean Remaining [%]” value [8] was 54.00% and the “24 h Mouse Plasma Stability | Mean Remaining [%]” value [8] was 46.20%.
In the case of `CCCCCC(=O)N[C@@H](Cc1ccccc1)C(=O)N[C@@H](CCC(N)=O)C(=O)N[C@@H](CO)C(=O)N[C@@H](CCCCN)C(=O)N1CCC[C@@H]1C(=O)N[C@@H](CO)C(=O)N[C@H](C(=O)N[C@@H](Cc1c[nH]cn1)C(=O)N[C@H](C(=O)N[C@@H](CC(=O)O)C(=O)N[C@H](C)C(=O)N[C@@H](Cc1ccc(O)cc1)C(=O)N[C@@H](Cc1ccccc1)C(=O)N[C@@H](CCC(=O)O)C(=O)N[C@@H](CCCNC(=N)N)C(=O)N[C@@H](CC(C)C)C(=O)NC(C)(C)C(=O)N[C@@H](C)C(=O)N[C@@H](CCCCN)C(=O)N[C@@H](CC(C)C)C(N)=O)C(C)(C)C)C(C)C` [JBT00002548, Hex-FQSKpSVH-Tle-DaYFERL-Aib-AKL-NH2], the “24 h Human Plasma Stability | Mean Remaining [%]” value [8] is reported as 98.85% and the “24 h Mouse Plasma Stability | Mean Remaining [%]” value [8] is reported as 50.25%.
For “Ac-FQSKGNVFVDGYFDRLRAKL-NH2 (SEQ ID NO: 31) [JBT0476]”, the EC50 [2] was 220 nM, the “% Inhibition @ […]” value [3] was 38% and the “% Inhibition @ […]” value [4] was 49%.
For “Ac-FQSKGNVFVNGYFERLRAKL-NH2 (SEQ ID NO: 27) [JBT0472]”, the EC50 [2] was 370 nM, the “% Inhibition @ […]” value [3] was 34% and the “% Inhibition @ […]” value [4] was 49%.
With “(Ac-FQSKpNVHVDGYFERL-Aib-AKLC-NH2)2-M2TriO [JBT00002522]” the “24 h Human Plasma Stability | Mean Remaining [%]” value [5] was 46.90% and the “24 h Mouse Plasma Stability | Mean Remaining [%]” value [5] was 18.05%.
